# Measurements taken from ChEMBL document CHEMBL1150479, “2-(3-hydroxypropoxy)-1,25-dihydroxyvitamin D3 (ED-71), preventive and therapeutic effects on bone mineral loss in ovariectomized rats” (Bioorg Med Chem Lett, 1993).
# Calls of active or inactive are those of the source. No cut-off for these calls is given here.
# Columns and labels:
# [1] = molecular target: T1, Vitamin D-binding protein (Rattus norvegicus) (UniProt P04276); test: In vitro binding potency against vitamin D binding protein (DBP) in ovariectomized rats
# T1 sequence (whole entry): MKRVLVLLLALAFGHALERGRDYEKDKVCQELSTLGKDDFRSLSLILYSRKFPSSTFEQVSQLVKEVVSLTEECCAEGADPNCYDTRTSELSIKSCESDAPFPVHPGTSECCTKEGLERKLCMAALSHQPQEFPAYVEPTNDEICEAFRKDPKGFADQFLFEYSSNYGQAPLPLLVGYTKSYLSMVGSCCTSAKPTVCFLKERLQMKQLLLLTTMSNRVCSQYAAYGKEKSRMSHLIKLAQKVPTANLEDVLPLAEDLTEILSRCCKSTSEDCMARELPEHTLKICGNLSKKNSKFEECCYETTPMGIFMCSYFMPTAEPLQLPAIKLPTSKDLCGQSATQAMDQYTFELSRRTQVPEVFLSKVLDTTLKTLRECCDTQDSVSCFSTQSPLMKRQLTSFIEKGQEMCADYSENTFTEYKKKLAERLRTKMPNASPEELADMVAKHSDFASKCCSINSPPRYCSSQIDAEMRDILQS
# Rattus norvegicus [2] = test: In vivo bone calcium mobilization was determined against ovariectomized rats; Stimulation; format: functional, organism-based
# [3] = molecular target: T2, Vitamin D3 receptor (Rattus norvegicus) (UniProt P13053)
# T2 sequence (whole entry): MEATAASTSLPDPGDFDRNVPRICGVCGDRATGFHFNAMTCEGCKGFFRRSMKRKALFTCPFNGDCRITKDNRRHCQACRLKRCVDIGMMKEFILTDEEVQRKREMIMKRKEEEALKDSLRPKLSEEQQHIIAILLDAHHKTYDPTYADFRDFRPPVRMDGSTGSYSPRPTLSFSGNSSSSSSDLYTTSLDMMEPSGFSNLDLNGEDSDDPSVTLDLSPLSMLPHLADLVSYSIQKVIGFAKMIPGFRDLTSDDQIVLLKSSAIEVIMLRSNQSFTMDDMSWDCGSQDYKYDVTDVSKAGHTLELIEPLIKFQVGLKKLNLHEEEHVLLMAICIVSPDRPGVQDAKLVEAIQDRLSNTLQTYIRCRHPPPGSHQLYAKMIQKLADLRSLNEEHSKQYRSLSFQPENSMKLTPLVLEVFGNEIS
# Description: In vitro binding potency for vitamin D receptor VDR in ovariectomized rats
# Rattus norvegicus [4] = organism: Rattus norvegicus; test: In vitro bone resorption against ovariectomized rats; Stimulation; format: functional
# Rattus norvegicus [5] = test: In vivo intestinal calcium absorption was determined against ovariectomized rats; Stimulation; format: functional, organism-based
# [6] = molecular target: T2, Vitamin D3 receptor (Rattus norvegicus); test: In vitro binding potency for vitamin D receptor VDR in 8 ovariectomized rats
# Rattus norvegicus [7] = organism: Rattus norvegicus; test: In vitro bone resorption against ovariectomized rats; Weak stimulation; format: functional
Binding potency [1],Binding potency [3],Binding potency [6],SMILES,Mobilization (Rattus norvegicus [2]),Resorption (Rattus norvegicus [4]),Absorption (Rattus norvegicus [5]),Resorption (Rattus norvegicus [7])
1,1,,C=C1/C(=C\C=C2/CCC[C@]3(C)[C@@H]([C@H](C)CCCC(C)(C)O)CC[C@@H]23)C[C@@H](O)C[C@@H]1O,Active,Active,Active,
2.7,,1,C=C1/C(=C\C=C2/CCC[C@]3(C)C([C@H](C)CCCC(C)(C)O)CC[C@@H]23)C[C@@H](O)[C@@H](OCCCO)[C@@H]1O (stereo not given in full),Active,,Active,Partially active
